Laboratory results reported in patent US20070259959A1, “Ppar Agonists for the Treatment of Hcv Infection” (priority 2003, published 2007).

Test system: HCV
Assay: Inhibition of HCV infection of cultured human hepatocytes (quantitative RT-PCR of HCV RNA)
Type: cell-based
Conditions: cultured human hepatocytes infected with infectious human serum; fenofibric acid tested at 50 μM and 500 μM; HCV RNA copies/350,000 cells four days after infection; 0.5% DMSO
Method: Isolated human hepatocytes from surgical liver resection were seeded in 24 well microplates at the density of 3×10^5 cells/well. Cells were allowed to attach and recover 24 hours and then medium was replaced with a fresh one containing different concentrations of fenofibric acid (50 μM and 500 μM). Hepatocytes were incubated 24 hours with the indicated amounts of fenofibric acid, then medium was replaced with fresh one containing the same amounts of fenofibric acid and a fixed amount (100 μl) of an infectious human serum from a patient chronically infected with HCV. Cells were incubated 18 hours with the virus to allow infection, then washed and incubated for four days. Total RNA was extracted and viral replication was measured by quantitative RT-PCR.
Typically, 10^4 to 10^5 copies of genomes per well are detected after four days from infection. To be sure that the measured viral RNA derived from active replication, a small molecule inhibitor of the viral replicase was included as a positive control.
Viral replication was measured on total RNA by quantitative PCR and expressed as number of HCV copies/350,000 cells. The experiment was performed in triplicate wells and values are shown with standard deviations. Fenofibric acid was dissolved in DMSO and tested at 50 μM and 500 μM. […]

CC(C)(Oc1ccc(C(=O)c2ccc(Cl)cc2)cc1)C(=O)O [fenofibric acid]
reduction of HCV infectivity: up to 90%
